Columns and labels:
[1] = Liquid; for mass density: 298.15 K, 101.33 kPa; for vapor or sublimation pressure: 313.15 K, Ebulliometric method (Recirculating still)
[2] = excess molar enthalpy (molar enthalpy of mixing); xn = mol fraction of the nth substance listed; conditions: 101 kPa, Liquid, Flow calorimetry

CCCCCl [1-chlorobutane]
[1]
Conditions	mass density [kg/m3]	vapor or sublimation pressure [kPa]
–	880.72	25.72

CCCCCl [1-chlorobutane] + CN1CCCC1=O
[2]
Conditions	excess molar enthalpy [kcal/mol]
298.15 K, x2 = 0.063	0.00454
298.15 K, x2 = 0.113	0.0098
298.15 K, x2 = 0.213	0.0194
298.15 K, x2 = 0.312	0.027
298.15 K, x2 = 0.411	0.0327
298.15 K, x2 = 0.51	0.0363
298.15 K, x2 = 0.608	0.037
298.15 K, x2 = 0.706	0.0347
298.15 K, x2 = 0.804	0.0284
298.15 K, x2 = 0.901	0.0167
298.15 K, x2 = 0.949	0.00908
308.15 K, x2 = 0.06	0.00813
308.15 K, x2 = 0.11	0.0153
308.15 K, x2 = 0.208	0.0275
308.15 K, x2 = 0.307	0.0363
308.15 K, x2 = 0.406	0.0421
308.15 K, x2 = 0.504	0.0457
308.15 K, x2 = 0.603	0.0457
308.15 K, x2 = 0.701	0.0421
308.15 K, x2 = 0.799	0.0339
308.15 K, x2 = 0.897	0.0198
308.15 K, x2 = 0.946	0.011
308.15 K, x2 = 0.965	0.00598

CCCCCCCl [1-chlorohexane]
[1]
Conditions	mass density [kg/m3]	vapor or sublimation pressure [kPa]
–	873.21	2.857

CCCCCCCl [1-chlorohexane] + CN1CCCC1=O
excess molar enthalpy [kcal/mol], [2]
Conditions	298.15 K	308.15 K
x2 = 0.062	–	0.0165
x2 = 0.064	0.0127	–
x2 = 0.111	–	0.0349
x2 = 0.113	0.0287	–
x2 = 0.208	–	0.0652
x2 = 0.21	0.0554	–
x2 = 0.306	–	0.0891
x2 = 0.308	0.0774	–
x2 = 0.404	–	0.104
x2 = 0.406	0.0913	–
x2 = 0.502	–	0.112
x2 = 0.503	0.0994	–
x2 = 0.601	0.1	0.112
x2 = 0.699	0.093	0.103
x2 = 0.797	0.0762	–
x2 = 0.798	–	0.0841
x2 = 0.895	0.0466	–
x2 = 0.897	–	0.0507
x2 = 0.944	0.0265	–
x2 = 0.947	–	0.027
x2 = 0.967	–	0.0174

CCCCCCCCCl [1-chlorooctane]
Conditions	mass density [kg/m3]
[1]	868.98

CCCCCCCCCl [1-chlorooctane] + CN1CCCC1=O
[2]
Conditions	excess molar enthalpy [kcal/mol]
298.15 K, x2 = 0.073	0.0229
298.15 K, x2 = 0.121	0.0473
298.15 K, x2 = 0.217	0.0887
298.15 K, x2 = 0.314	0.12
298.15 K, x2 = 0.411	0.141
298.15 K, x2 = 0.507	0.152
298.15 K, x2 = 0.604	0.154
298.15 K, x2 = 0.701	0.143
298.15 K, x2 = 0.798	0.12
298.15 K, x2 = 0.895	0.076
298.15 K, x2 = 0.943	0.0423
308.15 K, x2 = 0.068	0.0268
308.15 K, x2 = 0.116	0.0533
308.15 K, x2 = 0.213	0.098
308.15 K, x2 = 0.309	0.132
308.15 K, x2 = 0.406	0.155
308.15 K, x2 = 0.504	0.167
308.15 K, x2 = 0.602	0.1678
308.15 K, x2 = 0.7	0.156
308.15 K, x2 = 0.799	0.129
308.15 K, x2 = 0.898	0.081
308.15 K, x2 = 0.948	0.0449
308.15 K, x2 = 0.968	0.0263

CN1CCCC1=O [N-methylpyrrolidone]
Conditions	mass density [kg/m3]
[1]	1028.55

Source: the NIST ThermoML archive (doi:10.1016/j.jct.2008.01.024)
